Measured values published in PMC12412453 (Toxicology, 2021).
Where “and” joins values, the source holds several entries; their conditions need not be identical. Identical values can stand only once.

Assays:
[1] = tested on: primary human hepatocytes (PHHs); conditions: ref Seo et al., 2020, cited from earlier work; for BMD50: PHH CometChip data reanalyzed using PROAST; for BMDL50–BMDU50 / Potency ranking / LEC (lowest effective concentration) / BMDU/BMDL / DNA damage (ratio of %DNA in tail at highest concentration to vehicle control): PHH; for BMDL50–BMDU50: 90 % confidence interval of BMD50; for Potency ranking: rank by BMD50 among nine positive compounds; for LEC (lowest effective concentration): lowest concentration positive in comet assay
[2] = tested on: primary human hepatocytes (PHHs); conditions: ref Seo et al., 2020, cited from earlier work; for Cytotoxicity / Max. con.: PHH; for Cytotoxicity: ATP assay, 24-h treatment; for Max. con.: maximum concentration
[3] = reported findings; ref References column of Table 1; cited from earlier work
[4] = tested on: peripheral blood and bone marrow of rhesus macaques; conditions: single and repeated administration, ref Hotchkiss et al., 2008; cited from earlier work
[5] = Cytotoxicity by ATP assay; conditions: rhesus macaque
[6] = tested on: primary macaque hepatocytes (PMHs); test: Cytotoxicity by ATP assay; conditions: for Max. con. / Cytotoxicity: PMH, 24-h treatment; for Max. con.: maximum concentration
[7] = tested on: primary macaque hepatocytes (PMHs); test: CometChip assay; conditions: for BMDU/BMDL / DNA damage (ratio of %DNA in tail at highest concentration to vehicle control) / LEC (lowest effective concentration) / BMDL50–BMDU50 / Potency ranking: PMH; for BMD50: PMH CometChip data, PROAST exponential model; for DNA damage (ratio of %DNA in tail at highest concentration to vehicle control) / LEC (lowest effective concentration): 24-h treatment; for LEC (lowest effective concentration): lowest concentration positive in comet assay; for BMDL50–BMDU50: 90 % confidence interval of BMD50; for Potency ranking: rank by BMD50 among nine positive compounds
[8] = tested on: peripheral blood lymphocytes of male rhesus macaques; conditions: single dose of 50 mg/kg, ref Dobrovolsky et al., 2009; cited from earlier work
[9] = reported findings; ref References column of Table 1; cited from earlier work; remark: listed apart in the source
[10] = tested on: Vero cells; conditions: ref Gomes et al., 2021; cited from earlier work
[11] = tested on: bone marrow of rhesus macaques; conditions: ref Rao et al., 2005; cited from earlier work

SMILES | BMD50 [1] | BMDL50–BMDU50 [1] | Potency ranking [1] | LEC (lowest effective concentration) [1] | BMDU/BMDL [1] | DNA damage (ratio of %DNA in tail at highest concentration to vehicle control) [1] | Cytotoxicity [2] | Max. con. [2] | Genotoxicity assay findings in vivo [3] | Max. con. [6] | Cytotoxicity ([6]; ATP assay) | BMDU/BMDL [7] | BMD50 [7] | DNA damage (ratio of %DNA in tail at highest concentration to vehicle control) [7] | LEC (lowest effective concentration) [7] | BMDL50–BMDU50 [7] | Potency ranking [7] | further results
O=P1(N(CCCl)CCCl)NCCCO1 (stereo not drawn) [CPA, cyclophosphamide] | 248.2 µM | 135 to 437 µM | 8 | 1768 µM | 3.2 | ++ (2 < ratio ≤ 5) | + (11–30 %) | 10,000 μM | (+) for CA, MN, Pig-a, TG, and comet | 5000 µM | +++ (> 50 %) | 2.3 | 253 µM and 253.8 µM | +++ (the ratio > 5) | 937.5 µM | 165 to 372 µM | 7 | cell viability ([2]; PHHs, 10,000 μM): 88%; micronucleated reticulocytes [4]: significantly increased; viability at 24 h, 2500 µM [5]: 50%; fold increase in % tail DNA (DNA damage) compared to the vehicle control ([7]; PMHs, highest acceptable concentration, range given for four compounds together): 6.1–8.1 fold; LEC fold higher in PHHs than in PMHs ([7]; comet assay LEC, PHH vs PMH): 2 fold
CCN(N=O)C(N)=O [ENU, N-ethyl-N-nitrosourea] | 47.3 µM | 25.3 to 83.5 µM | 7 | 800 µM | 3.3 | +++ (the ratio > 5) | − (cytotoxicity of 0–10 %) | 3200 µM | (+) for CA, MN, Pig-a, TG, comet | 3200 µM | + (11–30 %) | 2.3 | 683 µM | +++ (the ratio > 5) | 2400 µM | 439 to 1030 µM | 8 | Pig-a and Hprt mutant frequencies [8]: significantly increased; Genotoxicity assay findings in vitro [9]: (+) for MLA, CA, MN, Pig-a, Hprt, comet, and UDS; cytotoxic effects (in words) ([6]; PMHs, ATP assay, 24-h exposure): cytotoxic effects over the same range of concentrations, but only in PMHs; BMD50 fold higher in PMHs than in PHHs (lower in PHHs) ([7]; CometChip BMD50, PMH vs PHH): 8–22 fold
Cc1c(N(C)CS(=O)(=O)[O-])c(=O)n(-c2ccccc2)n1C.[Na+] [dipyrone] |  |  |  |  |  |  |  |  |  |  |  |  |  |  |  |  |  | DNA damage by comet assay [10]: significant increases in DNA damage
S=P(N1CC1)(N1CC1)N1CC1 [thiotepa] |  |  |  |  |  |  |  |  |  |  |  |  |  |  |  |  |  | chromosomal aberrations in bone marrow [11]: induced chromosomal aberrations
